# Experiments:
# Format in all cases: in vivo
# Matricaria = assay: Pre-emergence test/Greenhouse, Matricaria; settings: after three weeks
# Procedure, shortened: (§1)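 In this greenhouse test the application rate per unit area, not the concentration of the preparation, defines the dose; the emulsified preparation is applied to soil about 24 h post-sowing. Plants are scored for % damage versus untreated control after three weeks.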
# Soya beans = assay: Pre-emergence test/Greenhouse, Soya beans; settings: in vivo
# Protocol: To produce a suitable preparation of the active compound, 1 part by weight of active compound is mixed with the stated amount of solvent, the stated amount of emulsifier is added and the concentrate is diluted with water to the desired concentration.
# Seeds of the test plants are sown in normal soil. After about 24 hours, the soil is watered with the preparation of active compound. Advantageously, the amount of water per unit area is kept constant. The active compound concentration in the preparation is not important, only the active compound appliation rate per unit area matters.
# After three weeks, the degree of damage to the plants is rated in % damage in comparison to the development of the untreated control.
# 0%=no action (like untreated control)
# weeds = assay: Pre-emergence test (greenhouse), activity against weeds; settings: in words
# Procedure, shortened: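 Compound formulated in acetone with alkylaryl polyglycol ether emulsifier, diluted in water, and watered onto soil about 24 h after sowing, dosed by application rate per unit area. Damage rated after three weeks as % versus untreated control (0% = no action).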
# Sorghum = assay: Pre-emergence test/Greenhouse, Sorghum; settings: after three weeks
# Procedure, shortened: as §1
# Poa = assay: Pre-emergence test/Greenhouse, Poa; settings: after three weeks
# Procedure, shortened: as §1
# Maize = assay: Pre-emergence test/Greenhouse, Maize; settings: in vivo
# Procedure, shortened: as §1
# Ambrosia = assay: Pre-emergence test/Greenhouse, Ambrosia; settings: after three weeks
# Procedure, shortened: as §1
# Lolium = assay: Pre-emergence test/Greenhouse, Lolium; settings: after three weeks
# Procedure, shortened: as §1
# Solanum = assay: Pre-emergence test/Greenhouse, Solanum; settings: after three weeks
# Procedure, shortened: as §1
structure (smiles),measurement,setting,value
CSc1nn(C(=O)NS(=O)(=O)c2c(C)cccc2C(=O)OC(C)C)c(=O)n1C [Example 8],"degree of damage to the plants (% damage vs untreated control), Matricaria",Matricaria; 60 g of ai./ha,95%
same,"degree of damage to the plants (% damage vs untreated control), Soya beans",Soya beans,0%
same,activity against weeds,weeds,very strong activity against weeds
same,"degree of damage to the plants (% damage vs untreated control), Sorghum",Sorghum; 60 g of ai./ha,80%
same,"degree of damage to the plants (% damage vs untreated control), Poa",Poa; 60 g of ai./ha,90%
same,"degree of damage to the plants (% damage vs untreated control), Maize",Maize,30%
same,"degree of damage to the plants (% damage vs untreated control), Ambrosia",Ambrosia; 60 g of ai./ha,90%
same,"degree of damage to the plants (% damage vs untreated control), Lolium",Lolium; 60 g of ai./ha,95%
same,"degree of damage to the plants (% damage vs untreated control), Solanum",Solanum; 60 g of ai./ha,95%
CCOC(=O)c1cccc(C)c1S(=O)(=O)NC(=O)c1noc(C)n1 [Example 10],"degree of damage to the plants (% damage vs untreated control), Matricaria",Matricaria; 250 g of ai./ha,95%
same,"degree of damage to the plants (% damage vs untreated control), Soya beans",Soya beans,20%
same,activity against weeds,weeds,very strong activity against weeds
same,"degree of damage to the plants (% damage vs untreated control), Sorghum",Sorghum; 250 g of ai./ha,70%
same,"degree of damage to the plants (% damage vs untreated control), Poa",Poa; 250 g of ai./ha,90%
same,"degree of damage to the plants (% damage vs untreated control), Maize",Maize,0%
same,"degree of damage to the plants (% damage vs untreated control), Ambrosia",Ambrosia; 250 g of ai./ha,95%
same,"degree of damage to the plants (% damage vs untreated control), Lolium",Lolium; 250 g of ai./ha,80%
same,"degree of damage to the plants (% damage vs untreated control), Solanum",Solanum; 250 g of ai./ha,95%
Cc1nc(C(=O)NS(=O)(=O)c2c(C)cccc2C(=O)OC(C)C)no1 [Example 12],"degree of damage to the plants (% damage vs untreated control), Matricaria",Matricaria; 125 g of ai./ha,95%
same,"degree of damage to the plants (% damage vs untreated control), Soya beans",Soya beans,0%
same,activity against weeds,weeds,very strong activity against weeds
same,"degree of damage to the plants (% damage vs untreated control), Sorghum",Sorghum; 125 g of ai./ha,60%
same,"degree of damage to the plants (% damage vs untreated control), Poa",Poa; 125 g of ai./ha,80%
same,"degree of damage to the plants (% damage vs untreated control), Maize",Maize,0%
same,"degree of damage to the plants (% damage vs untreated control), Ambrosia",Ambrosia; 125 g of ai./ha,95%
same,"degree of damage to the plants (% damage vs untreated control), Lolium",Lolium; 125 g of ai./ha,80%
same,"degree of damage to the plants (% damage vs untreated control), Solanum",Solanum; 125 g of ai./ha,95%
Cc1cccc(C(=O)OC(C)C)c1S(=O)(=O)NC(=O)n1nc(OC(C)C)n(C)c1=O [Example 18],"degree of damage to the plants (% damage vs untreated control), Matricaria",Matricaria; 60 g of ai./ha,95%
same,"degree of damage to the plants (% damage vs untreated control), Soya beans",Soya beans,0%
same,activity against weeds,weeds,very strong activity against weeds
same,"degree of damage to the plants (% damage vs untreated control), Sorghum",Sorghum; 60 g of ai./ha,90%
same,"degree of damage to the plants (% damage vs untreated control), Poa",Poa; 60 g of ai./ha,95%
same,"degree of damage to the plants (% damage vs untreated control), Maize",Maize,10%
same,"degree of damage to the plants (% damage vs untreated control), Ambrosia",Ambrosia; 60 g of ai./ha,95%
same,"degree of damage to the plants (% damage vs untreated control), Lolium",Lolium; 60 g of ai./ha,80%
same,"degree of damage to the plants (% damage vs untreated control), Solanum",Solanum; 60 g of ai./ha,95%
CCCOC(=O)c1cccc(C)c1S(=O)(=O)NC(=O)n1nc(OC)n(C)c1=O [Example 20],"degree of damage to the plants (% damage vs untreated control), Matricaria",Matricaria; 125 g of ai./ha,95%
same,"degree of damage to the plants (% damage vs untreated control), Soya beans",Soya beans,0%
same,activity against weeds,weeds,very strong activity against weeds
same,"degree of damage to the plants (% damage vs untreated control), Sorghum",Sorghum; 125 g of ai./ha,90%
same,"degree of damage to the plants (% damage vs untreated control), Poa",Poa; 125 g of ai./ha,95%
same,"degree of damage to the plants (% damage vs untreated control), Maize",Maize,10%
same,"degree of damage to the plants (% damage vs untreated control), Ambrosia",Ambrosia; 125 g of ai./ha,95%
same,"degree of damage to the plants (% damage vs untreated control), Lolium",Lolium; 125 g of ai./ha,95%
same,"degree of damage to the plants (% damage vs untreated control), Solanum",Solanum; 125 g of ai./ha,95%
CCCOC(=O)c1cccc(C)c1S(=O)(=O)NC(=O)n1nc(OCC)n(C)c1=O [Example 21],"degree of damage to the plants (% damage vs untreated control), Matricaria",Matricaria; 125 g of ai./ha,95%
same,"degree of damage to the plants (% damage vs untreated control), Soya beans",Soya beans,0%
same,activity against weeds,weeds,very strong activity against weeds
same,"degree of damage to the plants (% damage vs untreated control), Sorghum",Sorghum; 125 g of ai./ha,95%
same,"degree of damage to the plants (% damage vs untreated control), Poa",Poa; 125 g of ai./ha,95%
same,"degree of damage to the plants (% damage vs untreated control), Maize",Maize,0%
same,"degree of damage to the plants (% damage vs untreated control), Ambrosia",Ambrosia; 125 g of ai./ha,95%
same,"degree of damage to the plants (% damage vs untreated control), Lolium",Lolium; 125 g of ai./ha,95%
same,"degree of damage to the plants (% damage vs untreated control), Solanum",Solanum; 125 g of ai./ha,95%
CCCOC(=O)c1cccc(C)c1S(=O)(=O)NC(=O)n1nc(OCCC)n(C)c1=O [Example 22],"degree of damage to the plants (% damage vs untreated control), Matricaria",Matricaria; 125 g of ai./ha,95%
same,"degree of damage to the plants (% damage vs untreated control), Soya beans",Soya beans,10%
same,activity against weeds,weeds,very strong activity against weeds
same,"degree of damage to the plants (% damage vs untreated control), Sorghum",Sorghum; 125 g of ai./ha,80%
same,"degree of damage to the plants (% damage vs untreated control), Poa",Poa; 125 g of ai./ha,95%
same,"degree of damage to the plants (% damage vs untreated control), Maize",Maize,20%
same,"degree of damage to the plants (% damage vs untreated control), Ambrosia",Ambrosia; 125 g of ai./ha,95%
same,"degree of damage to the plants (% damage vs untreated control), Lolium",Lolium; 125 g of ai./ha,95%
same,"degree of damage to the plants (% damage vs untreated control), Solanum",Solanum; 125 g of ai./ha,95%

# Source: patent publication US6441195B1, “Substituted sulphonylamino(thio) carbonyl compounds” (Bayer Aktiengesellschaft, priority 1995, dated 2002)
